Source: PubChem BioAssay AID248 (DTP/NCI, 2004)
Several values for one entry are separate records, joined by “and”; a condition that tells them apart may be missing. Equal entries are not always repeated. Toxic doses and inconclusive results are not listed.

Test system: L1210 leukemia ip in BDF1 mice, survival T/C
Experiment: NCI In Vivo Anticancer Drug Screen. Data for tumor model L1210 Leukemia (intraperitoneal) in B6D2F1 (BDF1) mice
Settings: endpoint: mean survival time, higher = longer survival
Method in brief: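 Transplantable tumor model; survival measured in treated vs vehicle control mice. Value = treated/control.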

[1] = dose: 100.0 mg/kg/injection, schedule: Q01DX Z (ip), vehicle: methylcellulose (MC)
[2] = dose: 100.0 mg/kg/injection, schedule: Q04DX002 (ip), vehicle: Klucel (hydroxypropylcellulose) (HPC)
[3] = dose: 200.0 mg/kg/injection, schedule: Q01DX Z (ip), vehicle: methylcellulose (MC)
[4] = dose: 200.0 mg/kg/injection, schedule: Q04DX002 (ip), vehicle: Klucel (hydroxypropylcellulose) (HPC)
[5] = dose: 400.0 mg/kg/injection, schedule: Q04DX002 (ip), vehicle: Klucel (hydroxypropylcellulose) (HPC)
[6] = dose: 100.0 mg/kg/injection, schedule: Q01DX009 (ip), vehicle: saline with Tween-80
[7] = dose: 200.0 mg/kg/injection, schedule: Q01DX009 (ip), vehicle: saline with Tween-80
[8] = dose: 100.0 mg/kg/injection, schedule: Q01DX001 (ip), vehicle: saline
[9] = dose: 100.0 mg/kg/injection, schedule: Q01DX009 (ip), vehicle: Klucel (hydroxypropylcellulose) (HPC)
[10] = dose: 100.0 mg/kg/injection, schedule: Q04DX003 (ip), vehicle: Klucel (hydroxypropylcellulose) (HPC)
[11] = dose: 200.0 mg/kg/injection, schedule: Q01DX001 (ip), vehicle: saline
[12] = dose: 200.0 mg/kg/injection, schedule: Q01DX009 (ip), vehicle: Klucel (hydroxypropylcellulose) (HPC)
[13] = dose: 200.0 mg/kg/injection, schedule: Q04DX003 (ip), vehicle: Klucel (hydroxypropylcellulose) (HPC)
[14] = dose: 400.0 mg/kg/injection, schedule: Q01DX001 (ip), vehicle: saline
[15] = dose: 400.0 mg/kg/injection, schedule: Q01DX009 (ip), vehicle: Klucel (hydroxypropylcellulose) (HPC)
[16] = dose: 400.0 mg/kg/injection, schedule: Q04DX003 (ip), vehicle: Klucel (hydroxypropylcellulose) (HPC)
[17] = dose: 100.0 mg/kg/injection, schedule: Q01DX009 (ip), vehicle: saline
[18] = dose: 100.0 mg/kg/injection, schedule: Q04DX003 (ip), vehicle: saline
[19] = dose: 200.0 mg/kg/injection, schedule: Q01DX009 (ip), vehicle: saline
[20] = dose: 400.0 mg/kg/injection, schedule: Q01DX009 (ip), vehicle: saline with Tween-80
[21] = dose: 100.0 mg/kg/injection, schedule: Q04DX002 (ip), vehicle: saline with Tween-80
[22] = dose: 50.0 mg/kg/injection, schedule: Q01DX001 (ip), vehicle: carboxymethylcellulose (CMC)
[23] = dose: 100.0 mg/kg/injection, schedule: Q01DX001 (ip), vehicle: carboxymethylcellulose (CMC)
[24] = dose: 200.0 mg/kg/injection, schedule: Q01DX001 (ip), vehicle: carboxymethylcellulose (CMC)
[25] = dose: 400.0 mg/kg/injection, schedule: Q01DX001 (ip), vehicle: carboxymethylcellulose (CMC)

Cc1cccc(Nc2nc(N)nc(N)c2N=O)c1 was tested, and the T/C [1] was 102 % of control, the T/C [2] was 101 % of control and the T/C [3] was 97 % of control. The T/C [4] was 94 % of control and the T/C [5] was 101 % of control.

In the case of CC1CC=C(/C=N\NC(=O)c2ccc[n+](C)c2)C(C)O1 (stereo not drawn), the T/C (dose: 50.0 mg/kg/injection, schedule: Q01DX009 (ip), vehicle: saline with Tween-80) was 96 % of control, the T/C [6] was 96 % of control and the T/C [7] was 93 % of control.

For c1ccc(C23c4ccccc4C(=NC4CCCCC4)C2N3C2CCCCC2)cc1 (stereo not drawn), the T/C [8] was 94 % of control, the T/C [9] was 97 % of control and the T/C [10] was 93 % of control. For the same compound, the T/C [11] was 104 % of control, the T/C [12] was 92 % of control and the T/C [13] was 94 % of control. For the same compound, the T/C [14] was 110 % of control, the T/C [15] was 91 % of control and the T/C [16] was 98 % of control.

With CCOC(=N)CC(=O)OCC the T/C (dose: 50.0 mg/kg/injection, schedule: Q01DX001 (ip), vehicle: saline) was 101 % of control and 110 % of control, the T/C (dose: 89.0 mg/kg/injection, schedule: Q01DX001 (ip), vehicle: saline) was 101 % of control and the T/C [8] was 104 % of control and 113 % of control. The T/C (dose: 133.0 mg/kg/injection, schedule: Q01DX001 (ip), vehicle: saline) was 101 % of control, the T/C [11] was 95 % of control and 104 % of control and 231 % of control and the T/C (dose: 300.0 mg/kg/injection, schedule: Q01DX001 (ip), vehicle: saline) was 98 % of control. The T/C [14] was 95 % of control and 101 % of control.

With CCCCCc1cccc(C)n1 the T/C [8] was 96 % of control.

With CCN=C(c1ccc(NC(=O)c2ccc(C(=O)Nc3ccc(C(=NCC)N(CC)C(=O)OC)cc3)cc2)cc1)N(CC)C(=O)OC the T/C (dose: 1.5 mg/kg/injection, schedule: Q01DX015 (ip), vehicle: methylcellulose (MC)) was 112 % of control and the T/C (dose: 7.5 mg/kg/injection, schedule: Q01DX015 (ip), vehicle: methylcellulose (MC)) was 167 % of control.

CCOC(=O)CNCc1cccc(Cl)c1 was tested, and the T/C [17] was 98 % of control, the T/C [18] was 102 % of control and the T/C [19] was 95 % of control. The T/C (dose: 200.0 mg/kg/injection, schedule: Q04DX003 (ip), vehicle: saline) was 100 % of control and the T/C (dose: 400.0 mg/kg/injection, schedule: Q04DX003 (ip), vehicle: saline) was 95 % of control.

With O=C(CCc1ccc(O)cc1)N/N=C/c1ccc2c(c1)OCO2 the T/C [7] was 97 % of control and the T/C [20] was 87 % of control.

For CC(C)=CCC/C(C)=C\CN=C1C=CC(=O)O1, the T/C (dose: 25.0 mg/kg/injection, schedule: Q01DX009 (ip), vehicle: saline + alcohol) was 97 % of control, the T/C (dose: 25.0 mg/kg/injection, schedule: Q04DX003 (ip), vehicle: other) was 107 % of control and the T/C (dose: 50.0 mg/kg/injection, schedule: Q01DX009 (ip), vehicle: saline + alcohol) was 90 % of control. For the same compound, the T/C (dose: 50.0 mg/kg/injection, schedule: Q04DX003 (ip), vehicle: other) was 107 % of control, the T/C (dose: 100.0 mg/kg/injection, schedule: Q04DX003 (ip), vehicle: other) was 121 % of control and the T/C [18] was 91 % of control.

For O=C(O)c1ccc(=O)[nH]n1, the T/C [2] was 115 % of control, the T/C [4] was 93 % of control and the T/C [5] was 89 % of control.

With CCOC(=O)C1C(=O)C(N=Nc2ccc(-c3ccc(N=NC4C(=O)C(C(=O)OCC)C(c5ccc(O)c(OC)c5)C(C(=O)OCC)C4=O)cc3)cc2)C(=O)CC1c1ccc(O)c(OC)c1 (stereo not drawn) the T/C (dose: 100.0 mg/kg/injection, schedule: Q01DX001 (ip), vehicle: other) was 96 % of control and the T/C (dose: 200.0 mg/kg/injection, schedule: Q01DX001 (ip), vehicle: other) was 103 % of control.

With CCOc1ccccc1C=C(C#N)C#N the T/C [21] was 100 % of control.

With CCCCCCCCC(=O)Cl the T/C (dose: 100.0 mg/kg/injection, schedule: Q04DX002 (ip), vehicle: saline) was 100 % of control, the T/C (dose: 200.0 mg/kg/injection, schedule: Q04DX002 (ip), vehicle: saline) was 100 % of control and the T/C (dose: 400.0 mg/kg/injection, schedule: Q04DX002 (ip), vehicle: saline) was 103 % of control.

With COc1cccc(/C=C2\N=C(c3ccccc3)OC2=O)c1 the T/C [6] was 102 % of control, the T/C (dose: 100.0 mg/kg/injection, schedule: Q04DX003 (ip), vehicle: saline with Tween-80) was 97 % of control and the T/C [7] was 107 % of control. For the same compound, the T/C (dose: 200.0 mg/kg/injection, schedule: Q04DX003 (ip), vehicle: saline with Tween-80) was 94 % of control, the T/C [20] was 102 % of control and 90 % of control and the T/C (dose: 400.0 mg/kg/injection, schedule: Q04DX003 (ip), vehicle: saline with Tween-80) was 93 % of control.

CC1(C)N=C(N)N=C(N)N1NC(=O)c1ccc(F)cc1 was tested, and the T/C [17] was 102 % of control and the T/C [19] was 96 % of control.

NC(CC(O)c1ccccc1)c1ccccc1 (stereo not drawn) was tested, and the T/C (dose: 75.0 mg/kg/injection, schedule: Q01DX001 (ip), vehicle: carboxymethylcellulose (CMC)) was 96 % of control.

For Cc1ccc(NC2CNC(=O)NC2=O)cc1 (stereo not drawn), the T/C [1] was 100 % of control and the T/C [3] was 93 % of control.

In the case of NC(N)=N/N=C/C(Cl)(Cl)Cl, the T/C (dose: 15.0 mg/kg/injection, schedule: Q01DX Z (ip), vehicle: saline) was 87 % of control, the T/C (dose: 30.0 mg/kg/injection, schedule: Q01DX Z (ip), vehicle: saline) was 103 % of control and the T/C (dose: 60.0 mg/kg/injection, schedule: Q01DX Z (ip), vehicle: saline) was 95 % of control. For the same compound, the T/C (dose: 60.0 mg/kg/injection, schedule: Q01DX Z (oral), vehicle: saline) was 97 % of control, the T/C (dose: 120.0 mg/kg/injection, schedule: Q01DX Z (oral), vehicle: saline) was 97 % of control and the T/C (dose: 240.0 mg/kg/injection, schedule: Q01DX Z (oral), vehicle: saline) was 95 % of control. The T/C (dose: 480.0 mg/kg/injection, schedule: Q01DX Z (oral), vehicle: saline) was 98 % of control.

In the case of CCOC(=O)c1nc2c(OC)nn(O)cc-2c1Br, the T/C (dose: 25.0 mg/kg/injection, schedule: Q04DX002 (ip), vehicle: saline with Tween-80) was 92 % of control, the T/C (dose: 50.0 mg/kg/injection, schedule: Q04DX002 (ip), vehicle: saline with Tween-80) was 89 % of control and the T/C [21] was 96 % of control.

In the case of CC(=O)OC1C(C)OC(n2cnc3c(=S)nc[nH]c32)C1OC(C)=O (stereo not drawn), the T/C [22] was 103 % of control, the T/C [23] was 101 % of control and the T/C [24] was 108 % of control. The T/C [25] was 106 % of control.

For NC(=O)C#CC(N)=O, the T/C [9] was 97 % of control, the T/C [10] was 95 % of control and the T/C [12] was 109 % of control. The T/C [13] was 97 % of control, the T/C [15] was 92 % of control and the T/C [16] was 92 % of control.

Cc1cc(N(CCCl)CCCl)ccc1C=Nc1ccc(-c2csc(Cc3ccccc3)n2)cc1 was tested, and the T/C [22] was 105 % of control, the T/C [23] was 103 % of control and the T/C [24] was 116 % of control. The T/C [25] was 97 % of control.

With O=C(CS)CS the T/C (dose: 6.25 mg/kg/injection, schedule: Q01DX009 (ip), vehicle: water) was 102 % of control, the T/C (dose: 12.5 mg/kg/injection, schedule: Q01DX009 (ip), vehicle: water) was 114 % of control and the T/C (dose: 25.0 mg/kg/injection, schedule: Q01DX009 (ip), vehicle: water) was 98 % of control and 105 % of control. The T/C (dose: 25.0 mg/kg/injection, schedule: Q04DX003 (ip), vehicle: water) was 102 % of control, the T/C (dose: 50.0 mg/kg/injection, schedule: Q01DX009 (ip), vehicle: water) was 97 % of control and 103 % of control and the T/C (dose: 50.0 mg/kg/injection, schedule: Q04DX003 (ip), vehicle: water) was 91 % of control. The T/C (dose: 100.0 mg/kg/injection, schedule: Q04DX003 (ip), vehicle: water) was 97 % of control.

In the case of O=[N+]([O-])c1ccc(S(=O)(=O)CCCl)cc1, the T/C (dose: 50.0 mg/kg/injection, schedule: Q01DX009 (ip), vehicle: Klucel (hydroxypropylcellulose) (HPC)) was 100 % of control and the T/C [9] was 91 % of control.
